{
  "source": "patent US6413998B1",
  "about": "“Compositions and methods for treating bone deficit conditions” (Osteoscreen, Inc., priority 1995, dated 2002)",
  "key": {"TMC-23 cells": {"tested_on": "TMC-23 cells", "assay": "Alkaline phosphatase (ALP) activity in chondrogenic cell line TMC-23", "assay_type": "cell-based, mouse", "conditions": "day 2, 10^-9 M, compared to vehicle control", "method": "For measurement of alkaline phosphatase (ALP) activity, the technique of LF Bonewald et al. J Biol Chem (1992) 267:8943-49, was employed. Briefly, TMC-23 cells were plated in 96 well microtiter plates in DMEM containing 10% FCS at 4×10^3 cells/well. Two days after plating, the cells were confluent and the medium was replaced with fresh medium containing 10% FCS and different concentrations of compounds or recombinant BMP-2. After an additional 2 or 5 days incubation, the plates were washed twice with PBS, and then lysing solution (0.05% Triton X-100) was added (100 μl/well). The cells were lysed by three freeze-thaw cycles of −70° C. (30 min), followed by 37° C. (30 min with shaking). Twenty microliters of cell lysates were assayed with 80 μl of 5 mM p-nitrophenol phosphate in 1.5 M 2-amino-2-methyl-propanol buffer, pH 10.3 (Sigma ALP kit, Sigma Chemical Co., St. Louis, Mo.) for 10 min at 37° C. The reaction was stopped by the addition of 100 μl of 0.5 M NaOH. The spectrophotometric absorbance at 405 nm was compared to that of p-nitrophenol standards to estimate ALP activity in the samples. The protein content of the cell lysates was determined by the Bio-Rad protein assay kit (Bio-Rad, Hercules, Calif.). Specific activity was calculated using these two parameters."}, "BMP2 promoter": {"tested_on": "BMP2 promoter", "assay": "BMP-2 promoter luciferase reporter high throughput screening in 2T3-BMP-2-LUC cells", "assay_type": "cell-based, mouse", "conditions": "at concentration of maximal activity, about 3 μM", "excerpt": "A rapid throughput screening test for compounds capable of stimulating expression of a reporter gene linked to a BMP promoter (a surrogate for the production of bone morphogenetic factors that are endogenously produced) is described in U.S. application Ser. No. 08/458,434, filed Jun. 2, 1995, the entire contents of which are incorporated herein by reference. This assay is also described as a portion of a study of immortalized murine osteoblasts (derived from a mouse expressing a transgene composed of a BMP2 promoter driving expression of T-antigen) in Ghosh-Choudhery, N. et al. Endocrinology (1996) 137:331-39. […]\nBriefly, the assay utilizes cells transformed permanently or transiently with constructs in which the promoter of a bone morphogenetic protein, specifically BMP2 or BMP4, is coupled to a reporter gene, typically luciferase. These transformed cells are then evaluated for the production of the reporter gene product; compounds that activate the BMP promoter will drive production of the reporter protein, which can be readily assayed. […]\nThe treated cells were incubated for 24 hours at 37° C. and 5% CO2. […] Luminescence was measured on an automated 96-well luminometer, and was expressed as either picograms of luciferase activity per well or as picograms of luciferase activity per microgram of protein. […]"}, "ICR Swiss white mice": {"tested_on": "ICR Swiss white mice", "assay": "In vivo assay of effects of compounds on murine calvarial bone growth", "design": "species or system mouse", "conditions": "compared to vehicle control; subcutaneous injection over right calvaria, day 14", "procedure": "Male ICR Swiss white mice, aged 4-6 weeks and weighing 13-26 gm, are employed, using 4-5 mice per group. The calvarial bone growth assay is performed as described in PCT application WO 95/24211, incorporated by reference. Briefly, the test compound or appropriate control vehicle is injected into the subcutaneous tissue over the right calvaria of normal mice. Typically, the control vehicle is the vehicle in which the compound was solubilzed, and is PBS containing 5% DMSO or is PBS containing Tween (2 μl/10 ml). The animals are sacrificed on day 14 and bone growth measured by histomorphometry. Bone samples for quantitation are cleaned from adjacent tissues and fixed in 10% buffered formalin for 24-48 hours, decalcified in 14% EDTA for 1-3 weeks, processed through graded alcohols, and embedded in paraffin wax. Three to five μm sections of the calvaria are prepared, and representative sections are selected for histomorphometric assessment of the effects on bone formation and bone resorption. Sections are measured by using a camera lucida attachment to trace directly the microscopic image onto a digitizing plate. Bone changes are measured on sections cut 200 μm apart, over 4 adjacent 1×1 mm fields on both the injected and noninjected sides of the calvaria. […]"}},
  "data": [
    {"smiles": "c1ccc(N=NC2=NNc3ccccc3S2)cc1", "note": "[Compound 59-0008, 3-phenylazo-1H-4,1,2-benzothiadiazine]", "values": [
      {"measurement": "increase of ALP levels", "setting": "TMC-23 cells", "value": "approximately 3 fold"},
      {"measurement": "response (luciferase luminescence)", "setting": "BMP2 promoter", "value": "approximately 175 light emission units"},
      {"measurement": "increase in width of new calvarial bone", "setting": "ICR Swiss white mice", "value": 4, "unit": "fold"}
    ]}
  ]
}
